Legend:
WM1366-iCas9 xenograft = WM1366-iCas9 xenograft tumor growth in Nu/J mice; format: in vivo, mouse; settings: trametinib-containing chow (0.3 ppm) compared with control chow
Excerpt: FIG. 13A-13D: PDPK1 depletion delayed xenograft tumor growth in Nu/J mice, in accordance with some embodiments. FIG. 13A, Tumor growth of WM1366-iCas9 and PDPK1 knockout (KO) cells, represented as the change in volume (mm^3) over time, was shown from the start of injection to the start of treatment as indicated. Cyan dots indicated sacrifice of mice due to lack of visible tumors. The dotted line at 50 mm^3 indicates the size at which trametinib treatment was started. FIG. 13B: Time for tumor growth of WM1366-iCas9 cells to the start of treatment in male and female mice. Lines represent median number of days from the time of tumor implantation to the treatment size of 50 mm^3. The mouse without tumor formation was monitored for 105 days. p values were calculated with an unpaired two-tailed t test. […] FIG. 13D: Kaplan-Meier survival curves of WM1366-iCas9 tumor-bearing in female or male mice as indicated. p values were calculated by GraphPad Prism 9.0 with Log-rank (Mantel-Cox) test. n.s., not significant.
Animal experiments were performed at Thomas Jefferson University in a facility accredited by the Association for the Assessment and Accreditation of Laboratory Animal Care and were approved by the Institutional Animal Care and Use Committee (protocol #1052). […] Mouse weights were monitored once a week or three times per week during drug treatment. […]

1014 cells = experiment: 1014 cell growth for 7 days monitored by IncuCyte; format: cell-based, mouse; settings: in vitro

For `CC(=O)Nc1cccc(-n2c(=O)n(C3CC3)c(=O)c3c(Nc4ccc(I)cc4F)n(C)c(=O)c(C)c32)c1` [trametinib, N-(3-(3-cyclopropyl-5-((2-fluoro-4-iodophenyl)amino)-6,8-dimethyl-2,4,7-trioxo-3,4,6,7-tetrahydropyrido[4,3-d]pyrimidin-1(2H)-yl)phenyl)acetamide], which tumor growth (WM1366-iCas9 xenograft) is on record?
Its tumor growth is “delayed”.

And the 1014 cell proliferation (1014 cells)?
The 1014 cell proliferation was “suppressed”.

Source: US20240382484A1, “COMPOSITION FOR TREATING, PREVENTING, OR AMELIORATING MELANOMA AND METHOD THEREOF” (Thomas Jefferson University, priority 2021, published 2024)
